Experimental data as given in publication PMC10600239, “Selective MCL-1 inhibitor ABBV-467 is efficacious in tumor models but is associated with cardiac troponin increases in patients” (Communications Medicine, 2023).
Where “and” joins values, the source holds several entries; their conditions need not be identical. Equal entries are not always repeated.

Tested on: AMO-1 xenografts
Assay: AMO-1 xenograft efficacy (tumor volume, body weight)
Format: in vivo, mouse
Details: for % Weight Change (individual weights) / Weight, g (individual weights): individual animal, Day 21; for Xenograft AMO-1 (DSMZ) (mm³) Day 16 / Xenograft AMO-1 (DSMZ) (mm³) Day 19: tumor volume
Description: All animal studies were conducted in accordance with the guidelines approved by the Institutional Animal Care and Use Committees of AbbVie. The research protocol was approved by In Vivo Pharmacology at AbbVie prior to study initiation but was not publicly registered or disclosed. Female C.B-17 SCID-beige mice (AMO-1, OPM-2, NCI-H929, and OCI-AML2 xenografts) and female NSG mice (MV4-11-Red.Fluc systemic) were purchased from Charles River Laboratories (Wilmington, MA). Animals were housed in a light cycle-controlled room with HEPA filtration at 22 °C. Animals had nesting and climbing cage topper as the primary environmental enrichment. Animals were inoculated subcutaneously in the right flank with 5 × 10^6 (AMO-1, OPM-2, NCI-H929, and OCI-AML2) or intravenous (IV) with 5 × 10^6 (MV4-11-Red.Fluc). The inoculation volume (0.2 mL) comprised a 50:50 mixture of cells in growth media and Matrigel (BD Biosciences) for subcutaneous injections and 100% phosphate-buffered saline for IV administration. All cell lines used in this publication were authenticated using IDEXX for STR profiling as well as their IMPACT and human IMPACT panels for pathogen screening. Electronic calipers were used to measure the length and width of each tumor 2 to 3 times per week. Tumor volume was estimated by applying the following equation: volume = length × width^2/2. All groups remained blinded during measurements and dosing; only veterinary staff were aware of group identity. When tumors reached approximately 200 mm^3, mice were randomized by match and distributed into treatment and control groups. All xenograft trials were conducted using 5 to 10 mice per group, and all mice were ear tagged and monitored individually throughout the studies. […] Tumor burden in the systemic MV4-11-Red.Fluc experiment was measured using an IVIS® spectrum from PerkinElmer by taking the total photon flux of the entire dorsal side of an individual mouse. […] A background control mouse that was tumor naive but received D-Luciferin was placed in the upper left corner of each image. The total flux from this animal was subtracted from the total flux of each animal present in the image.
For in vivo studies, maximal tumor growth inhibition (TGI) was calculated as the greatest treatment response using the following equation: Maximal TGI = (1 − mean tumor volume of the treated group/mean tumor volume of the vehicle control group) × 100. The tumor growth delay (TGD) percentage was determined as the percentage increase of the median time period for the treatment group to reach an arbitrary tumor volume of 1000 mm^3 relative to the vehicle control group. […] A power analysis was conducted using historical data to determine the number of animals required to yield significance of 0.05 at a 30% difference. […] Data from experiments in vivo were analyzed using the student’s t-test for TGI values and the Mann–Whitney U test for TGD using Excel and GraphPad Prism. Fisher’s exact test was used to probe significance of differences in response frequency.

[1] = 25 mg/kg, Q7Dx2, IV, SCID-beige female mice, Day 91
[2] = Day 14, 6.25 mg/kg Q7Dx2 IV, control Group 01
[3] = Day 14, 25 mg/kg Q7Dx2 IV, control Group 01
[4] = Day 80, 25 mg/kg Q7Dx2 IV, SCID-beige female mice
[5] = Day 82, 25 mg/kg Q7Dx2 IV, SCID-beige female mice
[6] = SCID-beige female mice, 25 mg/kg Q7Dx2 IV, Day 47, remaining animals
[7] = SCID-beige female mice, 25 mg/kg Q7Dx2 IV, Day 75
[8] = SCID-beige female mice, 25 mg/kg Q7Dx2 IV, Day 88, surviving animals
[9] = control Group 01, 6.25 mg/kg Q7Dx2 IV
[10] = control Group 01, 25 mg/kg Q7Dx2 IV

## Cc1c(Cl)c2c(Cl)c(C)c1-c1c(-c3ccc(F)cc3)sc3ncnc(c13)O[C@@H](C(=O)O)Cc1cc(ccc1OCc1ccnc(-c3ccc(OC[C@H]4COCCO4)cc3)n1)OC[C@@H](CN1CCN(C)CC1)O2 [Compound A-1747745.0]
[1]
  Xenograft AMO-1 (DSMZ) tumor volume Day 91, Mean: 22.37 mm³
  Xenograft AMO-1 (DSMZ) tumor volume Day 91, Median: 22.37 mm³
  Xenograft AMO-1 (DSMZ) tumor volume Day 91, individual animal: 22 mm³
AMO-1 (DSMZ) xenograft, SCID-beige mouse, 6.25 mg/kg IV Q7Dx2
  % Mortality: 100.00%
AMO-1 (DSMZ) xenograft, SCID-beige mouse, 25 mg/kg IV Q7Dx2
  % Mortality: 100.00%
AMO-1 (DSMZ) xenograft, SCID-beige mouse, 25 mg/kg IV Q7Dx2, day 21
  % BW Loss: -2% (day 21)
[2]
  Body Weight Day 14, % T/C (mean): 96.25%
  Body Weight Day 14, % T/C (median): 96.25%
[3]
  Body Weight Day 14, % T/C (mean): 98.12%
  Body Weight Day 14, % T/C (median): 98.12%
[4]
  Xenograft AMO-1 (DSMZ) tumor volume, Mean: 10.80 mm³
  Xenograft AMO-1 (DSMZ) tumor volume, Median: 10.80 mm³
  Xenograft AMO-1 (DSMZ) tumor volume, individual animal: 11 mm³
[5]
  Xenograft AMO-1 (DSMZ) tumor volume, Mean: 12.07 mm³
  Xenograft AMO-1 (DSMZ) tumor volume, Median: 12.07 mm³
  Xenograft AMO-1 (DSMZ) tumor volume, individual animal: 12 mm³
SCID-beige female mice, 25 mg/kg Q7Dx2 IV, Day 47
  Xenograft AMO-1 (DSMZ) tumor volume Day 47 (individual animal): 8 mm³
[6]
  Xenograft AMO-1 (DSMZ) tumor volume Day 47, Mean: 8.10 mm³
  Xenograft AMO-1 (DSMZ) tumor volume Day 47, Median: 8.10 mm³
[7]
  Xenograft AMO-1 (DSMZ) Day 75 tumor volume, Mean: 13.50 mm³
  Xenograft AMO-1 (DSMZ) Day 75 tumor volume, Median: 13.50 mm³
  Xenograft AMO-1 (DSMZ) Day 75 tumor volume, individual animals: 14 mm³
SCID-beige female mice, 25 mg/kg Q7Dx2 IV, Day 88
  Xenograft AMO-1 (DSMZ) Day 88 (tumor volume, individual animals): 15 mm³
[8]
  Xenograft AMO-1 (DSMZ) Day 88, Mean: 14.75 mm³
  Xenograft AMO-1 (DSMZ) Day 88, Median: 14.75 mm³
Group mean tumor volume of remaining animals, SCID-beige female mice, 25 mg/kg Q7Dx2 IV, Day 84
  Xenograft AMO-1 (DSMZ) (mm³) Day 84, Mean: 5.32 mm³
Group mean, Day 16, 3.13 mg/kg QDx1 IV
  Xenograft AMO-1 (DSMZ) (mm³) Day 16 Mean: 205.11 mm³
Group mean, Day 16, 6.25 mg/kg QDx1 IV
  Xenograft AMO-1 (DSMZ) (mm³) Day 16 Mean: 172.06 mm³
Group mean, Day 19, 3.13 mg/kg QDx1 IV
  Xenograft AMO-1 (DSMZ) (mm³) Day 19 Mean: 192.25 mm³
Group mean, Day 19, 6.25 mg/kg QDx1 IV
  Xenograft AMO-1 (DSMZ) (mm³) Day 19 Mean: 133.62 mm³
Group mean, 25 mg/kg Q7Dx2 IV, SCID-beige mice, Day 70
  Xenograft AMO-1 (DSMZ) (mm³) Day 70, Mean: 24.72 mm³
Group median tumor volume of remaining animals, SCID-beige female mice, 25 mg/kg Q7Dx2 IV, Day 84
  Xenograft AMO-1 (DSMZ) (mm³) Day 84, Median: 5.32 mm³
Group median, Day 16, 3.13 mg/kg QDx1 IV
  Xenograft AMO-1 (DSMZ) (mm³) Day 16 Median: 207.59 mm³
Group median, Day 16, 6.25 mg/kg QDx1 IV
  Xenograft AMO-1 (DSMZ) (mm³) Day 16 Median: 173.79 mm³
Group median, Day 19, 3.13 mg/kg QDx1 IV
  Xenograft AMO-1 (DSMZ) (mm³) Day 19 Median: 202.67 mm³
Group median, Day 19, 6.25 mg/kg QDx1 IV
  Xenograft AMO-1 (DSMZ) (mm³) Day 19 Median: 134.81 mm³
Group median, 25 mg/kg Q7Dx2 IV, SCID-beige mice, Day 70
  Xenograft AMO-1 (DSMZ) (mm³) Day 70, Median: 24.72 mm³
Individual animal tumor volume, SCID-beige female mice, 25 mg/kg Q7Dx2 IV, Day 84
  Xenograft AMO-1 (DSMZ) (mm³) Day 84: 5.32 mm³
6.25 mg/kg IV Q7Dx2
  % Weight Change (individual weights): 0.65%
  Weight, g (individual weights): 22.14 g
25 mg/kg IV Q7Dx2
  % Weight Change (individual weights): -1.91%
  Weight, g (individual weights): 22.00 g
Individual animals, Day 14, 3.13 mg/kg QDx1 IV
  Body Weight (g) Day 14: 22 g
Individual animals, Day 14, 6.25 mg/kg QDx1 IV
  Body Weight (g) Day 14: 22 g
Individual animals, 25 mg/kg Q7Dx2 IV, SCID-beige mice, Day 70
  Xenograft AMO-1 (DSMZ) (mm³) Day 70: 25 mm³
Day 14, 3.13 mg/kg QDx1 IV
  Body Weight Day 14, % T/C (mean): 102.98%
  Body Weight Day 14, % T/C (median): 102.98%
Day 14, 6.25 mg/kg QDx1 IV
  Body Weight Day 14, % T/C (mean): 102.98%
  Body Weight Day 14, % T/C (median): 102.98%
Day 16, 3.13 mg/kg QDx1 IV
  Xenograft AMO-1 Day 16 % T/C (mean): 61.23%
  Xenograft AMO-1 Day 16 % T/C (median): 62.33%
Day 16, 6.25 mg/kg QDx1 IV
  Xenograft AMO-1 Day 16 % T/C (mean): 51.36%
  Xenograft AMO-1 Day 16 % T/C (median): 52.18%
Day 19, 3.13 mg/kg QDx1 IV
  Xenograft AMO-1 Day 19 % T/C (mean): 44.28%
  Xenograft AMO-1 Day 19 % T/C (median): 51.55%
Day 19, 6.25 mg/kg QDx1 IV
  Xenograft AMO-1 Day 19 % T/C (mean): 30.78%
  Xenograft AMO-1 Day 19 % T/C (median): 34.29%
[9]
  % T/C (mean), Body Weight Day 21: 96.87%
  % T/C (median), Body Weight Day 21: 96.87%
[10]
  % T/C (mean), Body Weight Day 21: 96.25%
  % T/C (median), Body Weight Day 21: 96.25%
mouse, in vivo, iv, 3.13 mg/kg
  Relative to initial body wt., %: 0.00%
mouse, in vivo, iv, 6.25 mg/kg
  Body Weight (g) Day 14 (individual animals): 22 g
  Body Weight (g) Day 14, Mean: 22.00 g
  Body Weight (g) Day 14, Median: 22.00 g
  Body Weight (g) Day 21: 22 g
  Body Weight (g) Day 21 Mean: 22.14 g
  Body Weight (g) Day 21 Median: 22.14 g
mouse, in vivo, iv, 25 mg/kg
  Body Weight (g) Day 14 (individual animals): 22 g
  Body Weight (g) Day 14, Mean: 22.43 g
  Body Weight (g) Day 14, Median: 22.43 g
  Body Weight (g) Day 21: 22 g
  Body Weight (g) Day 21 Mean: 22.00 g
  Body Weight (g) Day 21 Median: 22.00 g
Individual animals, Day 16, 3.13 mg/kg QDx1 IV
  Xenograft AMO-1 (DSMZ) (mm³) Day 16: 195 mm³ and 171 mm³ and 227 mm³ and 217 mm³ and 219 mm³ and 212 mm³ and 203 mm³ and 196 mm³
Individual animals, Day 16, 6.25 mg/kg QDx1 IV
  Xenograft AMO-1 (DSMZ) (mm³) Day 16: 158 mm³ and 174 mm³ (2×) and 187 mm³ and 182 mm³ and 167 mm³ and 173 mm³ and 160 mm³
Individual animals, Day 19, 3.13 mg/kg QDx1 IV
  Xenograft AMO-1 (DSMZ) (mm³) Day 19: 210 mm³ and 196 mm³ and 181 mm³ and 173 mm³ and 128 mm³ and 213 mm³ and 209 mm³ and 227 mm³
Individual animals, Day 19, 6.25 mg/kg QDx1 IV
  Xenograft AMO-1 (DSMZ) (mm³) Day 19: 142 mm³ and 122 mm³ and 113 mm³ and 105 mm³ and 128 mm³ and 144 mm³ and 162 mm³ and 152 mm³
